Experimental data taken from paper PMC7324608 (Scientific Reports, 2020).
Substitutions are numbered along the chain they refer to.

Key:
[1] = target: T1, HpHtrA S164A (Helicobacter pylori, UniProt G2J5T2, S164A); experiment: thermal shift assay; assay type: binding; parameters: (HpHtrA, G18-K475, UniProt G2J5T2); GST (N, cleaved yes); made in house; host or cells: E. coli BL21
T1 sequence (G2J5T2 18-475 S164A): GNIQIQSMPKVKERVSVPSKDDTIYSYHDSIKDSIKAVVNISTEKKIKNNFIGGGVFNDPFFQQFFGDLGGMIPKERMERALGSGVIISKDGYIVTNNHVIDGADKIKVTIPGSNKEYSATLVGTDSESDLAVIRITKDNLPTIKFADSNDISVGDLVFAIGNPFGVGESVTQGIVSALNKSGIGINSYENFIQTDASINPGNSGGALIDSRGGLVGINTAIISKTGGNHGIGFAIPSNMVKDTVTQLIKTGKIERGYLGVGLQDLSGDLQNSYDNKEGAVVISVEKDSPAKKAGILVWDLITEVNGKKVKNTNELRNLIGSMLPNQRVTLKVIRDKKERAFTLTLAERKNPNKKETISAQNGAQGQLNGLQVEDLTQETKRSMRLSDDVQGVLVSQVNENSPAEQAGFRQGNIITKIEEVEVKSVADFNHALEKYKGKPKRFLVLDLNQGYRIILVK
Experimental: Recombinant HpHtrA proteins (wt, S164A, D165A, S166A, D168A) in 50 mM HEPES buffer (pH 7.4) were mixed with SYPRO Orange (Sigma-Aldrich, Vienna, Austria) to final concentrations of 4 µM HpHtrA and 7 × SYPRO Orange in a 96-well PCR plate. […] Fluorescence data was collected using an Applied Bioscience StepOne Plus PCR cycler (Thermo Fisher Scientific, Schwerte, Germany) during a temperature ramp from 25–95 °C (0.5 °C per min) with a 4 min hold at 25 °C and 95 °C. SYPRO Orange binds to exposed hydrophobic regions within the denatured HpHtrA proteins, which increases the fluorescence of the dye[57],[58]. The fluorescence emission signal can then be used to determine the melting temperature of the protein, which is located at the infliction point of the fluorescence signal curve. The experiment was performed in triplicates.

[2] = system: HtrA homolog A (HhoA); conditions: cited from earlier work
[3] = target: T1, HpHtrA S164A; experiment: biochemical
Experimental: (§1) Synthesis of 2-Abz-AQRVAFY(3-NO2)-NH2. The peptide was assembled manually on a 20 µmol scale.
(§2) The side-chain protecting groups were Pbf for Arg, and Trt for Gln. Fmoc deprotection was carried out with 25% piperidine in DMF/NMP (80:20, v/v) for 3 min, and 12.5% piperidine in DMF/NMP (80:20, v/v) for 12 min. The double couplings (2x45 min) were accomplished with the mixture Fmoc-AA-OH/HOBt/HBTU/DIPEA (5:5:4.8:10 equiv.). 2 -Boc-Abz-OH was coupled with the same protocol.
(§3) Afterwards, the peptidyl-resin was treated with 25% piperidine in DMF/NMP (80:20, v/v) (2x12 min) to deacylate the 3-nitro-tyrosine side chain. The peptide was simultaneously cleaved from the resin and deprotected by using the mixture TFA/H2O/TIA/EDT/TIS (90:3:1:3:3; Vtot = 1 ml) for about 3 h, precipitated from ice-cold diethyl ether, recovered by centrifugation at 4 °C for 6 min, washed four times with ice-cold diethyl ether, and dried in vacuo. The solid was dissolved in water and lyophilized.
(§4) Microscale thermophoresis .
(§5) D168A, MicroScale Thermophoresis (MST) analysis was performed using the Monolith NT.115 (NanoTemper Technologies). HpHtrA proteases were labeled with red fluorescent dye NT -650-NHS (amine reactive) according to the manufacturer’s protocol. Remaining free dye was removed by buffer exchange column chromatography and proteins were eluted in 50 mM Tris pH 7.4, 150 mM NaCl, 0.04% Tween. 5 nM of labelled HpHtrA was incubated for 15 minutes at RT with decreasing […]
(§6) Measurement was performed with premium treated capillaries (NanoTemper Technologies) and the Monolith NT.115 Microscale Thermophoresis device. Data analysis was performed with MO.Affinity Analysis v2.3 (NanoTemper Technologies) and GraphPad Prism Software (Version 8.0.2). Three independent experiments were […]

[4] = target: T2, HpHtrA wt (Helicobacter pylori, UniProt G2J5T2); experiment: biochemical
T2 sequence (G2J5T2 18-475): T1 sequence (G2J5T2 18-475 S164A) with A147S
Experimental: as §1, §2, §3, §4, §5, §6

[5] = target: T3, HpHtrA D168A (Helicobacter pylori, UniProt G2J5T2, D168A); conditions: MST
T3 sequence (G2J5T2 18-475 D168A): T1 sequence (G2J5T2 18-475 S164A) with A147S, D151A
Experimental: as §1, §2, §3, §4, §5, §6

Row | Structure (SMILES) | thermal destabilization (ΔTm) ([1]; higher concentrations of ion) | thermal stabilization (ΔTm) ([1]; low/increasing concentrations of ion) | effect on HhoA in a casein cleavage assay [2] | Kd [3] | Response amplitude ([3]; MST, 5 nM labelled HpHtrA S164A) | S/N (signal to noise ratio) ([3]; MST, HpHtrA S164A) | Kd [4] | Response amplitude ([4]; MST, 5 nM labelled HpHtrA wt, ZnCl2 1 mM - 30.5 nM) | S/N (signal to noise ratio) ([4]; MST, HpHtrA wt) | Response amplitude [5]
1 | [Cu+2] [Cu^++, CuCl2] | destabilized | stabilized | – | – | – | – | – | – | – | –
2 | [Zn+2] [Zn^++, ZnCl2] | – | – | inactivates | 55 ± 34 µM | 3.6 | 6.0 | 23 ± 12 µM | 4.3 | 6.3 | 2.7
